{
  "source": "EPA's ToxValDB 9.5 (doi:10.2903/j.efsa.2008.138r)",
  "key": {"[1]": {"system": "Aphidius rhopalosiphi", "assay": "LR50; higher = less toxic", "conditions": "not reported; mortality"}, "[2]": {"system": "Canidae", "conditions": "chronic; duration: 1 years; oral; Dog Other; clinical chemistry"}, "[3]": {"system": "Daphnia magna", "conditions": "chronic/long-term; duration: 21 days; reproduction"}, "[4]": {"system": "Aphidius rhopalosiphi", "conditions": "not reported; reproduction"}, "[5]": {"system": "Oncorhynchus mykiss", "conditions": "acute; duration: 96 hours; mortality"}, "[6]": {"system": "Mus musculus", "conditions": "chronic; duration: 18 months; histopathology: neoplastic"}, "[7]": {"system": "Tagia sp."}, "[8]": {"system": "Bibionidae", "conditions": "chronic/long-term; duration: 21 days; other"}, "[9]": {"system": "Colinus virginianus", "conditions": "for LD50: acute, oral, mortality"}, "[10]": {"system": "Rattus norvegicus"}, "[11]": {"system": "Beta vulgaris", "conditions": "acute; duration: 14 days; other"}, "[12]": {"system": "Apis mellifera", "conditions": "acute; duration: 48 hours; oral; unspecified; mortality"}, "[13]": {"system": "Pleurozium sp.", "conditions": "acute; duration: 72 hours; biomass"}},
  "data": [
    {"smiles": "Fc1ccc([C@@]2(Cn3cncn3)O[C@@H]2c2ccccc2Cl)cc1", "note": "[Epoxiconazole]", "values": [
      {"measurement": "LR50", "setting": "[1]", "result": "> 246", "unit": "g/ha"},
      {"measurement": "NOAEL", "setting": "[2]", "result": 1.6, "unit": "mg/kg-day"},
      {"measurement": "NOEC", "setting": "[3]", "result": 0.63, "unit": "mg/L"},
      {"measurement": "LEL", "setting": "[4]", "result": 246, "unit": "g/ha"},
      {"measurement": "LC50", "setting": "[5]", "result": 3.14, "unit": "µg/mL"},
      {"measurement": "NOAEL", "setting": "[6]", "result": 0.8, "unit": "mg/kg-day"},
      {"measurement": "LC50", "setting": "[7]; acute, duration: 14 days, mortality", "result": "> 1000", "unit": "mg/kg"},
      {"measurement": "NOEC", "setting": "[7]; chronic/long-term, reproduction", "result": 0.167, "unit": "mg/kg"},
      {"measurement": "NOEC", "setting": "[8]", "result": 0.0625, "unit": "mg/L"},
      {"measurement": "LD50", "setting": "[9]; diet", "result": "> 5000", "unit": "mg/kg"},
      {"measurement": "LD50", "setting": "[9]", "result": "> 2000", "unit": "mg/kg"},
      {"measurement": "NOEL", "setting": "[9]; reproduction developmental", "result": 1, "unit": "mg/kg-day"},
      {"measurement": "LD50", "setting": "[10]; acute, oral, mortality", "result": 3160, "unit": "mg/kg"},
      {"measurement": "NOAEL", "setting": "[10]; reproduction developmental, reproduction", "result": 2.3, "unit": "mg/kg-day"},
      {"measurement": "LEL", "setting": "[11]", "result": 250, "unit": "g/ha"},
      {"measurement": "LD50", "setting": "[12]", "result": "> 83", "unit": "µg/piece"},
      {"measurement": "NOEC", "setting": "[13]", "result": 0.0078, "unit": "mg/L"}
    ]}
  ]
}
